Experimental data taken from PubChem BioAssay AID2060895 (Molecular Pharmacology Branch, DTP, NCI, 2025).

System: PDC 899932-113-R3-J6 complex spheroid viability
Assay: Anticancer human tumor 899932-113-R3-J6-PDC patient-derived melanoma cell line growth inhibition [RAS]
Conditions: for IC50: curve of first compound; for viability, T/C: stronger effect = lower value; active = viability on the fitted dose curve at most 10% of control; inactive = the rest
How it was run: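 Multi-cell-type spheroids: tumor cells plus HUVEC endothelial cells and mesenchymal stem cells. RAS-pathway inhibitors were combined with targeted agents, each dosed in half-log steps down from clinical Cmax, or from 10 microM when Cmax was unknown.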

[1] = second compound 0.000949 µM, first compound 0.0316 µM
[2] = second compound 0.000949 µM, first compound 0.1 µM
[3] = second compound 0.000949 µM, first compound 0.316 µM
[4] = second compound 0.000949 µM, first compound 1 µM
[5] = second compound 0.003 µM, first compound 0.0316 µM
[6] = second compound 0.003 µM, first compound 0.1 µM
[7] = second compound 0.003 µM, first compound 0.316 µM
[8] = second compound 0.003 µM, first compound 1 µM
[9] = second compound 0.00949 µM, first compound 0.0316 µM
[10] = second compound 0.00949 µM, first compound 0.1 µM
[11] = second compound 0.00949 µM, first compound 0.316 µM
[12] = second compound 0.00949 µM, first compound 1 µM
[13] = second compound 0.03 µM, first compound 0.0316 µM
[14] = second compound 0.03 µM, first compound 0.1 µM
[15] = second compound 0.03 µM, first compound 0.316 µM
[16] = second compound 0.03 µM, first compound 1 µM
[17] = second compound 0.0949 µM, first compound 0.0316 µM
[18] = second compound 0.0949 µM, first compound 0.1 µM
[19] = second compound 0.0949 µM, first compound 0.316 µM
[20] = second compound 0.0949 µM, first compound 1 µM
[21] = second compound 0.3 µM, first compound 0.0316 µM
[22] = second compound 0.3 µM, first compound 0.1 µM
[23] = second compound 0.3 µM, first compound 0.316 µM
[24] = second compound 0.3 µM, first compound 1 µM
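For viability, T/C in this document: spheroids exposed to agents for seven days before readout; 100% = DMSO vehicle control wells.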

CC(=O)OC12COC1CC(O)C1(C)C(=O)C(O)C3=C(C)C(OC(=O)C(O)C(NC(=O)OC(C)(C)C)c4ccccc4)CC(O)(C(OC(=O)c4ccccc4)C21)C3(C)C (stereo unspecified) + CCn1c(-c2cc(N3CCN(C)CC3)cnc2C(C)OC)c2c3cc(ccc31)-c1csc(n1)CC(NC(=O)C1CC1C)C(=O)N1CCCC(N1)C(=O)OCC(C)(C)C2
< 31.6 nM: IC50 (second compound 0.000949 µM) | IC50 (second compound 0.003 µM) | IC50 (second compound 0.00949 µM) | IC50 (second compound 0.03 µM) | IC50 (second compound 0.0949 µM) | IC50 (second compound 0.3 µM)
inactive: viability, T/C [1] 18.6% | viability, T/C [2] 18.4% | viability, T/C [3] 26.5% | viability, T/C [4] 36.3% | viability, T/C (second compound 0.000949 µM, first compound 3.16 µM) 45.5% | viability, T/C (second compound 0.000949 µM, first compound 10 µM) 47.2% | viability, T/C [5] 8.34% | viability, T/C [6] 10.3% | viability, T/C [7] 12.4% | viability, T/C [8] 14.1% | viability, T/C (second compound 0.003 µM, first compound 3.16 µM) 18.3% | viability, T/C (second compound 0.003 µM, first compound 10 µM) 21.1%
active: viability, T/C [9] 3.98% | viability, T/C [10] 3.52% | viability, T/C [11] 3.63% | viability, T/C [12] 3.09% | viability, T/C (second compound 0.00949 µM, first compound 3.16 µM) 3.96% | viability, T/C (second compound 0.00949 µM, first compound 10 µM) 4.11% | viability, T/C [13] 2.05% | viability, T/C [14] 1.55% | viability, T/C [15] 1.79% | viability, T/C [16] 1.78% | viability, T/C (second compound 0.03 µM, first compound 3.16 µM) 1.72% | viability, T/C (second compound 0.03 µM, first compound 10 µM) 1.3% | viability, T/C [17] 1.14% | viability, T/C [18] 1.02% | viability, T/C [19] 1.61% | viability, T/C [20] 0.79% | viability, T/C (second compound 0.0949 µM, first compound 3.16 µM) 0.68% | viability, T/C (second compound 0.0949 µM, first compound 10 µM) 0.72% | viability, T/C [21] 1.95% | viability, T/C [22] 0.96% | viability, T/C [23] 1.47% | viability, T/C [24] 0.52% | viability, T/C (second compound 0.3 µM, first compound 3.16 µM) 0.57% | viability, T/C (second compound 0.3 µM, first compound 10 µM) 0.59%

CCc1c2c(nc3ccc(O)cc13)-c1cc3c(c(=O)n1C2)COC(=O)[C@]3(O)CC + CCn1c(-c2cc(N3CCN(C)CC3)cnc2C(C)OC)c2c3cc(ccc31)-c1csc(n1)CC(NC(=O)C1CC1C)C(=O)N1CCCC(N1)C(=O)OCC(C)(C)C2
< 0.949 nM: IC50 (second compound 0.003 µM) | IC50 (second compound 0.00949 µM) | IC50 (second compound 0.03 µM) | IC50 (second compound 0.0949 µM) | IC50 (second compound 0.3 µM)
2 nM: IC50 (second compound 0.000949 µM)
active: viability, T/C (second compound 0.00949 µM, first compound 0.000949 µM) 3.79% | viability, T/C (second compound 0.00949 µM, first compound 0.003 µM) 3.32% | viability, T/C (second compound 0.00949 µM, first compound 0.00949 µM) 3.11% | viability, T/C (second compound 0.00949 µM, first compound 0.03 µM) 3.28% | viability, T/C (second compound 0.00949 µM, first compound 0.0949 µM) 3.1% | viability, T/C (second compound 0.00949 µM, first compound 0.3 µM) 3.34% | viability, T/C (second compound 0.03 µM, first compound 0.000949 µM) 2.49% | viability, T/C (second compound 0.03 µM, first compound 0.003 µM) 2.47% | viability, T/C (second compound 0.03 µM, first compound 0.00949 µM) 2.92% | viability, T/C (second compound 0.03 µM, first compound 0.03 µM) 2.25% | viability, T/C (second compound 0.03 µM, first compound 0.0949 µM) 2.41% | viability, T/C (second compound 0.03 µM, first compound 0.3 µM) 2.31% | viability, T/C (second compound 0.0949 µM, first compound 0.000949 µM) 2.12% | viability, T/C (second compound 0.0949 µM, first compound 0.003 µM) 2.87% | viability, T/C (second compound 0.0949 µM, first compound 0.00949 µM) 2.12% | viability, T/C (second compound 0.0949 µM, first compound 0.03 µM) 2.27% | viability, T/C (second compound 0.0949 µM, first compound 0.0949 µM) 1.31% | viability, T/C (second compound 0.0949 µM, first compound 0.3 µM) 1.12% | viability, T/C (second compound 0.3 µM, first compound 0.000949 µM) 1.75% | viability, T/C (second compound 0.3 µM, first compound 0.003 µM) 2.65% | viability, T/C (second compound 0.3 µM, first compound 0.00949 µM) 2.22% | viability, T/C (second compound 0.3 µM, first compound 0.03 µM) 1.86% | viability, T/C (second compound 0.3 µM, first compound 0.0949 µM) 1.47% | viability, T/C (second compound 0.3 µM, first compound 0.3 µM) 1.58%
inactive: viability, T/C (second compound 0.000949 µM, first compound 0.000949 µM) 63.8% | viability, T/C (second compound 0.000949 µM, first compound 0.003 µM) 39.8% | viability, T/C (second compound 0.000949 µM, first compound 0.00949 µM) 36% | viability, T/C (second compound 0.000949 µM, first compound 0.03 µM) 26.9% | viability, T/C (second compound 0.000949 µM, first compound 0.0949 µM) 22.6% | viability, T/C (second compound 0.000949 µM, first compound 0.3 µM) 23% | viability, T/C (second compound 0.003 µM, first compound 0.000949 µM) 31.1% | viability, T/C (second compound 0.003 µM, first compound 0.003 µM) 24.2% | viability, T/C (second compound 0.003 µM, first compound 0.00949 µM) 16.4% | viability, T/C (second compound 0.003 µM, first compound 0.03 µM) 16.1% | viability, T/C (second compound 0.003 µM, first compound 0.0949 µM) 13.4% | viability, T/C (second compound 0.003 µM, first compound 0.3 µM) 14%

Nc1ccn(C2OC(CO)C(O)C2(F)F)c(=O)n1 (stereo unspecified) + CCn1c(-c2cc(N3CCN(C)CC3)cnc2C(C)OC)c2c3cc(ccc31)-c1csc(n1)CC(NC(=O)C1CC1C)C(=O)N1CCCC(N1)C(=O)OCC(C)(C)C2
< 3.16 nM: IC50 (second compound 0.003 µM) | IC50 (second compound 0.00949 µM) | IC50 (second compound 0.03 µM) | IC50 (second compound 0.0949 µM) | IC50 (second compound 0.3 µM)
5.85 nM: IC50 (second compound 0.000949 µM)
inactive: viability, T/C (second compound 0.000949 µM, first compound 0.00316 µM) 62.9% | viability, T/C (second compound 0.000949 µM, first compound 0.01 µM) 38.6% | viability, T/C [1] 19.2% | viability, T/C [2] 10.9% | viability, T/C [3] 10.9% | viability, T/C [4] 12.7% | viability, T/C (second compound 0.003 µM, first compound 0.00316 µM) 34.1% | viability, T/C (second compound 0.003 µM, first compound 0.01 µM) 22.6% | viability, T/C [5] 9.17%
active: viability, T/C [6] 6.99% | viability, T/C [7] 7.8% | viability, T/C [8] 7.27% | viability, T/C (second compound 0.00949 µM, first compound 0.00316 µM) 3.07% | viability, T/C (second compound 0.00949 µM, first compound 0.01 µM) 3.15% | viability, T/C [9] 3.74% | viability, T/C [10] 3.5% | viability, T/C [11] 3.59% | viability, T/C [12] 3.95% | viability, T/C (second compound 0.03 µM, first compound 0.00316 µM) 2.89% | viability, T/C (second compound 0.03 µM, first compound 0.01 µM) 2.31% | viability, T/C [13] 3.09% | viability, T/C [14] 3.08% | viability, T/C [15] 2.1% | viability, T/C [16] 2.81% | viability, T/C (second compound 0.0949 µM, first compound 0.00316 µM) 2.38% | viability, T/C (second compound 0.0949 µM, first compound 0.01 µM) 1.69% | viability, T/C [17] 2.42% | viability, T/C [18] 2.17% | viability, T/C [19] 1.85% | viability, T/C [20] 2.61% | viability, T/C (second compound 0.3 µM, first compound 0.00316 µM) 1.86% | viability, T/C (second compound 0.3 µM, first compound 0.01 µM) 2% | viability, T/C [21] 2.22% | viability, T/C [22] 2.4% | viability, T/C [23] 2.26% | viability, T/C [24] 1.79%
